Values joined by “and” are separate entries in the source; they are usually repeats but may differ in a detail not shown here. Equal values may be shown once. One block for each compound: values may come before it.
Test system: 233499-124-R-J3-PDC complex spheroid growth
Experiment: Anticancer human tumor 233499-124-R-J3-PDC patient-derived colon adenocarcinoma cell line growth inhibition [AhR]
Details: for viability, T/C: stronger effect = lower value
How it was run: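 Spheroids combined tumor cells with HUVEC endothelial cells and human MSCs as stroma. AhR antagonists were paired with standard or investigational drugs, each dosed in half-log steps down from near clinical Cmax, or from 10 microM where Cmax was unknown.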

[1] = curve of first compound, second compound 0.1 µM
[2] = curve of first compound, second compound 0.316 µM
[3] = curve of first compound, second compound 1 µM
[4] = curve of first compound, second compound 3.16 µM
[5] = curve of first compound, second compound 10 µM
[6] = second compound 0.1 µM, first compound 0.000949 µM
[7] = second compound 0.1 µM, first compound 0.003 µM
[8] = second compound 0.1 µM, first compound 0.00949 µM
[9] = second compound 0.1 µM, first compound 0.03 µM
[10] = second compound 0.1 µM, first compound 0.0949 µM
[11] = second compound 0.1 µM, first compound 0.3 µM
[12] = second compound 0.316 µM, first compound 0.000949 µM
[13] = second compound 0.316 µM, first compound 0.003 µM
[14] = second compound 0.316 µM, first compound 0.00949 µM
[15] = second compound 0.316 µM, first compound 0.03 µM
[16] = second compound 0.316 µM, first compound 0.0949 µM
[17] = second compound 0.316 µM, first compound 0.3 µM
[18] = second compound 1 µM, first compound 0.000949 µM
[19] = second compound 1 µM, first compound 0.003 µM
[20] = second compound 1 µM, first compound 0.00949 µM
[21] = second compound 1 µM, first compound 0.03 µM
[22] = second compound 1 µM, first compound 0.0949 µM
[23] = second compound 1 µM, first compound 0.3 µM
[24] = second compound 3.16 µM, first compound 0.000949 µM
[25] = second compound 3.16 µM, first compound 0.003 µM
[26] = second compound 3.16 µM, first compound 0.00949 µM
[27] = second compound 3.16 µM, first compound 0.03 µM
[28] = second compound 3.16 µM, first compound 0.0949 µM
[29] = second compound 3.16 µM, first compound 0.3 µM
[30] = second compound 10 µM, first compound 0.000949 µM
[31] = second compound 10 µM, first compound 0.003 µM
[32] = second compound 10 µM, first compound 0.00949 µM
[33] = second compound 10 µM, first compound 0.03 µM
[34] = second compound 10 µM, first compound 0.0949 µM
[35] = second compound 10 µM, first compound 0.3 µM
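Further: spheroids exposed to agents for seven days before reading.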

IC50 [1]: 0.3 µM
IC50 [2]: > 0.3 µM
IC50 [3]: > 0.3 µM
IC50 [4]: > 0.3 µM
IC50 [5]: > 0.3 µM
SMILES: CCc1c2c(nc3ccc(O)cc13)-c1cc3c(c(=O)n1C2)COC(=O)[C@]3(O)CC + CC(CO)NC(=O)c1cc(-c2ccc(Cl)cc2)nn(-c2cnn(C)c2)c1=O
viability, T/C [6]: 87.3%
viability, T/C [7]: 98.9%
viability, T/C [8]: 73.4%
viability, T/C [9]: 50.5%
viability, T/C [10]: 60.6%
viability, T/C [11]: 55.1%
viability, T/C [12]: 108%
viability, T/C [13]: 105%
viability, T/C [14]: 76.4%
viability, T/C [15]: 56.2%
viability, T/C [16]: 57.9%
viability, T/C [17]: 66.4%
viability, T/C [18]: 103%
viability, T/C [19]: 94.4%
viability, T/C [20]: 80.5%
viability, T/C [21]: 64.7%
viability, T/C [22]: 57.9%
viability, T/C [23]: 62.5%
viability, T/C [24]: 92.8%
viability, T/C [25]: 88.2%
viability, T/C [26]: 71.6%
viability, T/C [27]: 58%
viability, T/C [28]: 72.8%
viability, T/C [29]: 48.6%
viability, T/C [30]: 93.8%
viability, T/C [31]: 70.4%
viability, T/C [32]: 77.9%
viability, T/C [33]: 75.4%
viability, T/C [34]: 49.1%
viability, T/C [35]: 59.7%

IC50 (curve of compound): > 10 µM and 5.81 µM
SMILES: COc1cccc2c1C(=O)c1c(O)c3c(c(O)c1C2=O)CC(O)(C(=O)CO)CC3OC1CC(N)C(O)C(C)O1 (stereo not given)
viability, T/C (compound 0.0316 µM): 98% and 91.4% and 90.8%
viability, T/C (compound 0.1 µM): 85.2% and 85.3% and 89.7%
viability, T/C (compound 0.316 µM): 90.2% and 92.3% and 93.3%
viability, T/C (compound 1 µM): 97.9% and 97.3% and 87.4%
viability, T/C (compound 3.16 µM): 66.9% and 78% and 60.5%
viability, T/C (compound 10 µM): 60% and 71.6% and 40.6%

IC50 [1]: > 0.3 µM
IC50 [2]: > 0.3 µM
IC50 [3]: > 0.3 µM
IC50 [4]: > 0.3 µM
IC50 [5]: > 0.3 µM
SMILES: CCc1c2c(nc3ccc(O)cc13)-c1cc3c(c(=O)n1C2)COC(=O)[C@]3(O)CC + Cc1ccccc1N=Nc1ccc(NC(=O)c2ccnn2C)c(C)c1
viability, T/C [6]: 95.3%
viability, T/C [7]: 103%
viability, T/C [8]: 102%
viability, T/C [9]: 81.8%
viability, T/C [10]: 90.4%
viability, T/C [11]: 76.6%
viability, T/C [12]: 87.6%
viability, T/C [13]: 91.4%
viability, T/C [14]: 88.5%
viability, T/C [15]: 75.4%
viability, T/C [16]: 77.8%
viability, T/C [17]: 88%
viability, T/C [18]: 105%
viability, T/C [19]: 113%
viability, T/C [20]: 102%
viability, T/C [21]: 78.3%
viability, T/C [22]: 84.5%
viability, T/C [23]: 86.2%
viability, T/C [24]: 91.5%
viability, T/C [25]: 105%
viability, T/C [26]: 86.5%
viability, T/C [27]: 86.9%
viability, T/C [28]: 91.8%
viability, T/C [29]: 73.4%
viability, T/C [30]: 107%
viability, T/C [31]: 90.6%
viability, T/C [32]: 104%
viability, T/C [33]: 103%
viability, T/C [34]: 106%
viability, T/C [35]: 101%

The remaining lines, values behind:

SMILES: CC(C)c1c(-c2ccccc2)nc2c(C#N)c[nH]n2c1=O + CC(CO)NC(=O)c1cc(-c2ccc(Cl)cc2)nn(-c2cnn(C)c2)c1=O
IC50 [1]: > 10 µM
IC50 [2]: > 10 µM
IC50 [3]: > 10 µM
IC50 [4]: > 10 µM
IC50 [5]: > 10 µM
viability, T/C (second compound 0.1 µM, first compound 0.0316 µM): 100%
viability, T/C (second compound 0.1 µM, first compound 0.1 µM): 97.7%
viability, T/C (second compound 0.1 µM, first compound 0.316 µM): 99.6%
viability, T/C (second compound 0.1 µM, first compound 1 µM): 101%
viability, T/C (second compound 0.1 µM, first compound 3.16 µM): 104%
viability, T/C (second compound 0.1 µM, first compound 10 µM): 105%
viability, T/C (second compound 0.316 µM, first compound 0.0316 µM): 113%
viability, T/C (second compound 0.316 µM, first compound 0.1 µM): 109%
viability, T/C (second compound 0.316 µM, first compound 0.316 µM): 89.5%
viability, T/C (second compound 0.316 µM, first compound 1 µM): 93.7%
viability, T/C (second compound 0.316 µM, first compound 3.16 µM): 96.2%
viability, T/C (second compound 0.316 µM, first compound 10 µM): 102%
viability, T/C (second compound 1 µM, first compound 0.0316 µM): 107%
viability, T/C (second compound 1 µM, first compound 0.1 µM): 106%
viability, T/C (second compound 1 µM, first compound 0.316 µM): 98%
viability, T/C (second compound 1 µM, first compound 1 µM): 102%
viability, T/C (second compound 1 µM, first compound 3.16 µM): 104%
viability, T/C (second compound 1 µM, first compound 10 µM): 100%
viability, T/C (second compound 3.16 µM, first compound 0.0316 µM): 101%
viability, T/C (second compound 3.16 µM, first compound 0.1 µM): 95.3%
viability, T/C (second compound 3.16 µM, first compound 0.316 µM): 94.5%
viability, T/C (second compound 3.16 µM, first compound 1 µM): 96.8%
viability, T/C (second compound 3.16 µM, first compound 3.16 µM): 92.4%
viability, T/C (second compound 3.16 µM, first compound 10 µM): 87.8%
viability, T/C (second compound 10 µM, first compound 0.0316 µM): 98.2%
viability, T/C (second compound 10 µM, first compound 0.1 µM): 82.5%
viability, T/C (second compound 10 µM, first compound 0.316 µM): 93.5%
viability, T/C (second compound 10 µM, first compound 1 µM): 86.3%
viability, T/C (second compound 10 µM, first compound 3.16 µM): 87.4%
viability, T/C (second compound 10 µM, first compound 10 µM): 96.6%

SMILES: Cc1ccccc1N=Nc1ccc(NC(=O)c2ccnn2C)c(C)c1
viability, T/C (compound 0.1 µM): 102% [middle of 20 runs]
viability, T/C (compound 10 µM): 97.8% [middle of 20 runs]
IC50 (compound alone, run of 07/26/2022): > 10 µM

SMILES: CCN(c1cc(-c2ccc(CN3CCOCC3)cc2)cc(C(=O)NCc2c(C)cc(C)[nH]c2=O)c1C)C1CCOCC1 + Cc1ccccc1N=Nc1ccc(NC(=O)c2ccnn2C)c(C)c1
IC50 [1]: > 3 µM
IC50 [2]: > 3 µM
IC50 [3]: > 3 µM
IC50 [4]: > 3 µM
IC50 [5]: > 3 µM
viability, T/C [8]: 99.3%
viability, T/C [9]: 98%
viability, T/C [10]: 95.1%
viability, T/C [11]: 97.1%
viability, T/C (second compound 0.1 µM, first compound 0.949 µM): 97.2%
viability, T/C (second compound 0.1 µM, first compound 3 µM): 102%
viability, T/C [14]: 88%
viability, T/C [15]: 95.8%
viability, T/C [16]: 100%
viability, T/C [17]: 95.3%
viability, T/C (second compound 0.316 µM, first compound 0.949 µM): 98.3%
viability, T/C (second compound 0.316 µM, first compound 3 µM): 96.6%
viability, T/C [20]: 107%
viability, T/C [21]: 97.6%
viability, T/C [22]: 104%
viability, T/C [23]: 93.1%
viability, T/C (second compound 1 µM, first compound 0.949 µM): 92.3%
viability, T/C (second compound 1 µM, first compound 3 µM): 100%
viability, T/C [26]: 95.1%
viability, T/C [27]: 93.9%
viability, T/C [28]: 105%
viability, T/C [29]: 91.7%
viability, T/C (second compound 3.16 µM, first compound 0.949 µM): 92.6%
viability, T/C (second compound 3.16 µM, first compound 3 µM): 93.7%
viability, T/C [32]: 101%
viability, T/C [33]: 96.1%
viability, T/C [34]: 91.8%
viability, T/C [35]: 92.7%
viability, T/C (second compound 10 µM, first compound 0.949 µM): 93.9%
viability, T/C (second compound 10 µM, first compound 3 µM): 99.5%
